Assay results: US20240293305A1, “COMPOSITION WITH ANTIMICROBIAL OR ANTIFUNGAL ACTIVITY COMPRISING FERMENTED SCUTELLARIA BAICALENSIS EXTRACT, FERMENTED SALVIA MILTIORRHIZA EXTRACT AND FERMENTED DRYPTERIS CCRASSIRHIZOMA EXTRACT” (Sooy-K Co., LTD., priority 2023, published 2024)
“And” between values parts separate entries of the source, which are not always exact repeats. Identical values can stand only once.

Columns and labels:
Assay type in all cases: cell-based
[1] = system: Candida albicans (C. albicans, KCTC 7965); assay: Disc diffusion method, clear zone, C. albicans; settings: Table 19 Antibiotic: ketoconazole (200 μg/mL)
Description: (§1) As the strains used for antibacterial activity experiments, Gram-positive bacteria Staphylococcus aureus (S. aureus, KCTC 1916), Gram-negative Escherichia coli (E. coli, KCTC 2571), Pseudomonas aeruginosa (P. aeruginosa, KCTC 2513), Candida albicans (C. albicans, KCTC 7965), and Aspergillus niger (A. niger, KCTC 6196), which were purchased from the Korean collection for Type Cultures (KCTC), were stored and used (Table 5). The inhibitory zones of the extracts were measured by a test method of antibacterial activity to determine the presence or absence of antibacterial activity and to compare the degree of effectiveness of the extracts against the proliferation of bacteria. The antibacterial activity was measured by the disc diffusion method using a paper disc (size: 8 mm, Advantec, Toyo Roshi Kaisha, Ltd., Tokyo, Japan). The strains were each inoculated in an amount of one platinum loop, diluted in 4 mL of sterile water, mixed with a sterilized medium, and the mixture was poured into a prepared plate to be hardened. A 3% extract each was filtered (pore size: 0.4 μm, Advantec MFS, Inc., Tokyo, Japan), and 40 μL was taken and allowed to be absorbed onto a paper disc. After culturing for 24 hours at an appropriate temperature for each strain, the size of the transparent ring formed around the paper disc was measured. [table]

[2] = system: Aspergillus niger (A. niger, KCTC 6196); assay: Disc diffusion method, clear zone, A. niger; settings: KCTC6196, Table 19 Antibiotic: ketoconazole (200 μg/mL), read-out: Clear zone (ø, mm) A. niger
Description: as §1

[3] = system: Pseudomonas aeruginosa (P. aeruginosa, KCTC 2513); assay: Disc diffusion method, clear zone, P. aeruginosa; settings: KCTC2513, Control Group Antibiotic: tetracycline (50 μg/mL), read-out: Clear Zone (ø, mm) P. aeruginosa
Description: as §1

[4] = system: Escherichia coli (E. coli, KCTC 2571); assay: Disc diffusion method, clear zone, E. coli
Description: as §1

[5] = system: Staphylococcus aureus (S. aureus, KCTC 1916); assay: Disc diffusion method, clear zone, S. aureus
Description: as §1

SMILES | Clear zone (ø, mm) C. albicans [1] | zone of inhibition at 200 µg/mL [2] | zone of inhibition at 50 µg/mL [3] | Clear Zone (ø, mm) E. coli ([4]; Control Group Antibiotic: tetracycline (50 μg/mL)) | zone of inhibition at 50 µg/mL ([4]; Escherichia coli, KCTC2571, Control Group Antibiotic: tetracycline (50 μg/mL), read-out: Clear Zone (ø, mm) E. coli) | zone of inhibition at 100 µg/mL ([4]; Escherichia coli, KCTC2571, Table 19 Antibiotic: tetracycline (100 μg/mL), read-out: Clear zone (ø, mm) E. coli) | zone of inhibition at 50 µg/mL ([5]; KCTC1916, Control Group Antibiotic: tetracycline (50 μg/mL), read-out: Clear Zone (ø, mm) S. aureus) | zone of inhibition at 100 µg/mL ([5]; KCTC1916, Table 19 Antibiotic: tetracycline (100 μg/mL), read-out: Clear zone (ø, mm) S. aureus)
CC(=O)N1CCN(c2ccc(OCC3COC(Cn4ccnc4)(c4ccc(Cl)cc4Cl)O3)cc2)CC1 (centres unmarked) [ketoconazole] | no antibacterial activity | 13.2 mm | – | – | – | – | – | –
CN(C)[C@@H]1C(O)=C(C(N)=O)C(=O)[C@@]2(O)C(O)=C3C(=O)c4c(O)cccc4[C@@](C)(O)[C@H]3C[C@@H]12 [tetracycline] | – | – | 9 mm | 19.6 mm and 18.2 mm and 18.5 mm and 20.7 mm and 15.7 mm and 17.8 mm and 14.2 mm | 25.6 mm | 14.2 mm | 22.8 mm | 18.2 mm
